Marks after values point to notes of the source that are not given here.
Assays:
[1] = Water/octanol partition of nitroxides, ratio determined by EPR; format: physicochemical; conditions: Octanol:water
Text: CHD, 2-spirocyclohexane doxyl(2-spirocyclohexane-5,5-dimethyl-3-oxazolidinoxyl) and OXANO, 2-ethyl-2,5,5-trimethyl-3-oxazolidine-1-oxyl as well as other nitroxides were synthesized as described by Keana et al (J. Am. Chem. Soc., 89, 3055-3056, 1967) For the general synthesis of the cyclic amines, the appropriate starting ketone was reacted with 2-amino-2-methyl-1-propanol in benzene in the presence of catalytic amounts of p-toluene sulfonic acid. As the cyclic structure formed, water was eliminated. The volume of water collected in a Dean Stark apparatus was monitored and used to gauge the reaction progress. The amines thus produced were purified through fractional distillation under reduced pressure, characterized by 220 MHz ^1H NMR, IR, UV, either EI or CI mass spectroscopy, and subsequently oxidized to the corresponding nitroxides using m-chloroperbenzoic acid. The nitroxides were purified by silica flash chromatography (Still et al, J. Org. Chem., 43, 2923-2925, 1978). Water/octanol ratios were determined by placing a quantity of nitroxide in water+octanol within a separatory funnel. The mixture was shaken thoroughly and allowed to separate for 15 min, whereupon aliquots were taken from both fractions and the ratio of nitroxide distribution was determined using electron paramagnetic resonance (EPR) spectroscopy, by comparing the intensities of signal obtained under N2.

[2] = EPR signal of nitroxides exposed to O2 flux formed by HX/XO (spin-loss); format: biochemical; conditions: % from total R′RNO + R′RNOH after exposure to 5 mM HX + 0.03 U/ml XO in air-saturated PBS pH 7.2
Protocol: For EPR experiments, samples (0.05-0.1 ml) either of solutions of chemicals or cell suspensions were drawn by a syringe into a gas-permeable teflon capillary of 0.8 mm inner diameter, 0.05 mm wall thickness (Zeus Industrial Products, Inc. Raritan, N.J.). Each capillary was folded twice, inserted into a narrow quartz tube which was open at both ends (2.5 mm ID), and then placed horizontally into the EPR cavity. During the experiments, gases of desired compositions were blown around the sample without having to disturb the alignment of the tube within the EPR cavity. EPR spectra were recorded in a Varian E4 (or E9) X-band spectrometer, with field set at 3357 G, modulation frequency of 100 KHz, modulation amplitude of 1 G and non-saturating microwave power. The EPR spectrometer was interfaced to an IBM-PC through an analog-to-digital converter and a data translation hardware (DT2801) and the spectra were digitized using commercial acquisition software, enabling subtraction of background signals. To study the kinetics of the spin-loss, the spectra were deliberately overmodulated, and the magnetic field was kept constant while the intensity of the EPR signal was followed.

[3] = SOD-inhibitable ferricytochrome c reduction assay, rate constants of reaction with O2 (SOD-like activity); format: biochemical; conditions: low ionic strength (10 mM HEPES), pH 7.0, 22° C.
Text: As a further check, the reaction of representatives of both 5- and 6-membered cyclic nitroxides with O2 was studied. The SOD-inhibitable ferricytochrome c reduction assay (Fridovich, Handbook of Methods for Oxygen Radical Research, 213-215, 1985) was used to determine rate constants of reaction with O2. […] The reaction was started by adding 0.01 U/ml XO and the rate of ferricytochrome c reduction, in the absence (V) and in the presence (v) of various nitroxides, was spectrophotometrically followed at 550 nm. Both reference and sample cuvettes contained all the reagents, with the reference cuvette containing 100 units/ml SOD, thereby eliminating spurious reactions from interfering with the determination of rate constants. Data were analyzed by plotting V/v as a function of [nitroxide] and k1 was calculated, knowing kCytC+superoxide, according to:
(V/v)−1=k1x[nitroxide]/kCytC+superoxidex[Cyt−c^III].

[4] = system: Chinese hamster V79 cells; assay: Protection of cells exposed to HX/XO, clonogenic survival; format: cell-based; conditions: 0.05 U/ml XO + 0.5 mM HX, 37° C.; 5 mM nitroxide; 100 U/ml catalase; SOD; 500 μM DF preincubated 2 h
Protocol: Chinese hamster V79 cells were grown in F12 medium supplemented with 10% fetal calf serum, penicillin, and streptomycin. Survival was assessed in all studies by the clonogenic assay. The plating efficiency range between 80-90%. Stock cultures of exponentially growing cells were trypsinized, rinsed, and plated (5×10^5 cells/dish) into a number of 100 mm petri dishes and incubated 16 h at 37° C. prior to experimental protocols. Cells were exposed for 1 h at 37° C. to either 0.5 mM hypoxanthine (HX)+0.05 U/ml of xanthine oxidase (XO) for varying lengths of time, or to H2O2 at different concentrations. To assess possible modulation in cytotoxicity, catalase, 100 U/ml; SOD, 100 μg/ml; DF, 500 μM; and 5 mM of each of the nitroxides from Table 1 were added to parallel cultures. CHD was prepared in a stock solution in ethanol and diluted into medium such that the final concentration was 5 mM. […] TEMPOL is water soluble and was prepared directly in tissue culture medium. […] DF was added either 2 h prior to or during treatment while the other agents were present only during HX/XO or H2O2 treatment. Following treatment, cells were rinsed, trypsinized, counted, and plated for macroscopic colony formation. For each dose determination cells were plated in triplicate and the experiments were repeated a minimum of two times. Plates were incubated 7 days, after which colonies were fixed with methanol/acetic acid, stained with crystal violet, and counted. Colonies containing >50 cells were scored. Error bars represent S.D. of the mean and are shown when larger than the symbol.

[5] = system: Chinese hamster V79 cells; assay: Protection of cells exposed to H2O2 under hypoxic conditions; format: cell-based; conditions: 600 μM H2O2, 1 h, 37° C.
Protocol: Some studies required exposure to H2O2 under hypoxic conditions. For these studies, cells dispersed in 1.8 ml of medium were plated into specially designed glass flasks (Russo et al, Radiat. Res., 103, 232-239, 1985). The flasks were sealed with soft rubber stoppers, and 19-gauge needles were pushed through to act as entrance and exit ports for a humidified gas mixture of 95% nitrogen/5% CO2 (Matheson Gas Products). […] Stoppered flasks were connected in series and mounted on a reciprocating platform and gassed at 37° C. for 45 min. […] After 45 min of gassing, the hypoxic H2O2 solution was added to the cell monolayer culture. The cells were exposed to H2O2 for 1 h under hypoxic conditions. N2 gas flow was maintained during the H2O2 exposure. In parallel flasks, DF and CHD were added as described above, and were present during the entire gassing procedure. Following treatment, cell survival was assessed as described above.

CC1(C)CN([O])C2(CCCCC2)O1 [CHD, 2-spirocyclohexane-5,5-dimethyl-3-oxazolidinoxyl]
Partition coefficient [1]: 80 | Steady state EPR signal (%) [2]: 30% | kR′RNO + O2 [3]: 3.5 × 10^3 M − 1^s − 1 | cell survival / protection from HX/XO [4]: fully protected | protection against H2O2 cytotoxicity under hypoxic conditions [5]: protects
